Test results reported in patent EP4806898A1, “HETEROARYL DERIVATIVE COMPOUND AND USE THEREOF” (Voronoi Inc., priority 2023, dated 2025).

Columns and labels:
UWB1.289 cells = assay: Cell proliferation inhibitory activity in BRCA1/2-mutant or HRD-positive cells (Cell Titer-Glo); format: cell-based; conditions: UWB1289; UWB1.289 cells, 144 hours after compound treatment, Cell Titer-Glo, 1.5 nM to 10 µM; read-out: GI50 UWB1.289 BRCA1 mut
Outline: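 UWB1.289 cells (1,000/well) in 50% MEBM/50% RPMI1640 exposed to […], final 1.5 nM to 10 µM, for 144 h at 37 °C. Viable cells measured by CellTiter-Glo luminescence; GI50 calculated.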

recombinant USP1 protein = target: T1, recombinant USP1 protein (Homo sapiens, UniProt O94782, DEL125-138/DEL229-408/DEL608-737); assay: Binding affinity to recombinant USP1 protein by differential scanning fluorimetry; conditions: compound 100 µM; 0.03 mg/mL USP1 (Δ1-66, Δ125-138, Δ229-408, Δ608-737); Tm with compound minus Tm with DMSO; read-out: ΔTm (°C)
T1 sequence (O94782 with tags, fused parts or gaps DEL125-138/DEL229-408/DEL608-737): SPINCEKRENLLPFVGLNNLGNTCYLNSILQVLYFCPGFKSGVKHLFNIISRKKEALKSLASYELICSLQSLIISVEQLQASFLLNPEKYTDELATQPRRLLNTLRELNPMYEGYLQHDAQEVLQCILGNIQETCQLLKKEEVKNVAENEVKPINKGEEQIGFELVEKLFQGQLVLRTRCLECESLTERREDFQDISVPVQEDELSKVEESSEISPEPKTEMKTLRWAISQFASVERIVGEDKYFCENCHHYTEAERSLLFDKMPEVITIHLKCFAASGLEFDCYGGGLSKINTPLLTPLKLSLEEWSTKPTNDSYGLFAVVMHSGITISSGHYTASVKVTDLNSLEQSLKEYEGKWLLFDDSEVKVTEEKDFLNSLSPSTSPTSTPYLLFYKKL
Outline: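 USP1 (Δ1-66, Δ125-138, Δ229-408, Δ608-737) at 0.03 mg/mL with dye in 50 mM Tris-HCl pH 8.0, 150 mM NaCl, 2% glycerol, 1 mM DTT; compounds at 100 µM final. Tm read on real-time PCR instrument; ΔTm = Tm with compound minus Tm with DMSO.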

ΔTm at 100 µM (recombinant USP1 protein) [°C]	Structure (SMILES)	GI50 (UWB1.289 cells) [nM]
> 5	COc1ncnc(C2CC2)c1-c1ncc2cc(C(=O)NC[C@@H]3CCCO3)n(Cc3ccc(-c4nc(C(F)(F)F)cn4C(C)C)cc3)c2n1 [Example 124, (S)-2-(4-cyclopropyl-6-methoxypyrimidin-5-yl)-7-(4-(1-isopropyl-4-(trifluoromethyl)-1H-imidazol-2-yl)benzyl)-N-((tetrahydrofuran-2-yl)methyl)-7H-pyrrolo[2,3-d]pyrimidine-6-carboxamide]	< 100
> 5	CNC1CN(C(=O)c2cc3cnc(-c4c(OC)ncnc4C4CC4)nc3n2Cc2ccc(-c3nc(C(F)(F)F)cn3C)cc2)C1 [Example 203, (2-(4-cyclopropyl-6-methoxypyrimid in-5-yl)-7-(4-(1-methyl-4-(trifluoromethyl)-1H-imidazol-2-yl)benzyl)-7H-pyrrolo[2,3-d]pyrimidin-6-yl) (3-(methylamino)azetidin-1-yl)methanone]	< 100
> 5	COc1ncnc(C2CC2)c1-c1ncc2cc(C(=O)N[C@H]3CCN(C)[C@H](C)C3)n(Cc3ccc(-c4nc(C(F)(F)F)cn4C)cc3)c2n1 [Example 201, 2-(4-cyclopropyl-6-methoxypyrimidin-5-yl)-N-((2R,4S)-1,2-dimethylpiperidin-4-yl)-7-(4-(1-methyl-4-(trifluoromethyl)-1H-imidazol-2-yl)benzyl)-7H-pyrrolo[2,3-d]pyrimidine-6-carboxamide]	< 100
> 5	COc1ncnc(C2CC2)c1-c1ncc2cc(C(=O)N[C@H]3CCN(C)C[C@@H]3F)n(Cc3ccc(-c4nc(C(F)(F)F)cn4C)cc3)c2n1 [Example 167, 2-(4-cyclopropyl-6-methoxypyrimidin-5-yl)-N-((3S,4S)-3-fluoro-1-methylpiperidin-4-yl)-7-(4-(1-methyl-4-(trifluoromethyl)-1H-imidazol-2-yl)benzyl)-7H-pyrrolo[2,3-d]pyrimidine-6-carboxamide]	< 100
> 5	CNC1CN(C(=O)c2cc3cnc(-c4c(OC)ncnc4C4CC4)nc3n2Cc2ccc(-c3nc(C(F)(F)F)cn3C(C)C)cc2)C1 [Example 144, (2-(4-cyclopropyl-6-methoxypyrimid in-5-yl)-7-(4-(1-isopropyl-4-(trifluoromethyl)-1H-imidazol-2-yl)benzyl) -7H-pyrrolo[2,3-d]pyrimidin-6-yl) (3-(methylamino)azetidin-1-yl)methanone]	< 100
> 5	CNC(=O)c1cc2cnc(-c3c(OC4CC4)ncnc3C3CC3)nc2n1Cc1ccc(-c2nc(C(F)(F)F)cn2C)cc1 [Example 184, 2-(4-cyclopropyl-6-cyclopropoxypyrimidin-5-yl)-N-methyl-7-(4-(1-methyl-4-(trifluoromethyl)-1H-imidazol-2-yl)benzyl)-7H-pyrrolo[2,3-d]pyrimidine-6-carboxamide]	< 100
> 5	CCC1(NC(=O)c2cc3cnc(-c4c(OC)ncnc4C4CC4)nc3n2Cc2ccc(-c3nc(C(F)(F)F)cn3C(C)C)cc2)COC1 [Example 132, 2-(4-cyclopropyl-6-methoxypyrimidin-5-yl)-N-(3-ethyloxetan-3-yl)-7-(4-(1-isopropyl-4-(trifluoromethyl)-1H-imidazol-2-yl)benzyl)-7H-pyrrolo[2,3-d]pyrimidine-6-carboxamide]	< 100
> 5	CNC(=O)c1cc2cnc(-c3cccnc3C(C)C)nc2n1Cc1ccc(-c2nc(C(F)(F)F)cn2C(C)C)cc1 [Example 134, 7-(4-(1-isopropyl-4-(trifluoromethyl)-1H-imidazol-2-yl)benzyl)-2-(2-isopropylpyridin-3-yl)-N-methyl-7H-pyrrolo[2,3-d]pyrimidine-6-carboxamide]	< 100
> 5	COc1ncnc(C2CC2)c1-c1ncc2cc(C(=O)NC[C@@H](O)C(C)C)n(Cc3ccc(-c4nc(C(F)(F)F)cn4C)cc3)c2n1 [Example 190, (S)-2-(4-cyclopropyl-6-methoxypyrimidin-5-yl)-N-(2-hydroxy-3-methylbutyl)-7-(4-(1-methyl-4-(trifluoromethyl)-1H-imidazol-2-yl)benzyl)-7H-pyrrolo[2,3-d]pyrimidine-6-carboxamide]	< 100
> 5	COc1ncnc(C2CC2)c1-c1ncc2cc(C(=O)N[C@H]3CN(C(C)C)C[C@H]3F)n(Cc3ccc(-c4nc(C(F)(F)F)cn4C)cc3)c2n1 [Example 211, 2-(4-cyclopropyl-6-methoxypyrimidin-5-yl)-N-((3S,4R)-4-fluoro-1-isopropylpyrrolidin-3-yl)-7-(4-(1-methyl-4-(trifluoromethyl)-1H-imidazol-2-yl)benzyl)-7H-pyrrolo[2,3-d]pyrimidine-6-carboxamide]	< 100

The next lines start with the molecule.

Structure (SMILES)	ΔTm at 100 µM (recombinant USP1 protein) [°C]	GI50 (UWB1.289 cells) [nM]
CCN1CCN(C(=O)c2cc3cnc(-c4c(OC)ncnc4C4CC4)nc3n2Cc2ccc(-c3nc(C(F)(F)F)cn3C(C)C)cc2)CC1 [Example 57, (2-(4-cyclopropyl-6-methoxypyrimid in-5-yl)-7-(4-(1-isopropyl-4-(trifluoromethyl)-1H-imidazol-2-yl)benzyl)-7H-pyrrolo[2,3-d]pyrimidin-6-yl) (4-ethylpiperazin-1-yl)methanone]	> 5	< 100
COc1ncnc(C2CC2)c1-c1ncc2cc(C(=O)N3CCOC4(CCC4)C3)n(Cc3ccc(-c4nc(C(F)(F)F)cn4C(C)C)cc3)c2n1 [Example 56, (2-(4-cyclopropyl-6-methoxypyrimid in-5-yl)-7-(4-(1-isopropyl-4-(trifluoromethyl)-1H-imidazol-2-yl)benzyl)-7H-pyrrolo[2,3-d]pyrimidin-6-yl) (5-oxa-8-azaspiro[3.5]nonan-8-yl)methanone]	> 5	100 to 500
COc1ncnc(C2CC2)c1-c1ncc2cc(C(=O)Nc3nccs3)n(Cc3ccc(-c4nc(C(F)(F)F)cn4C(C)C)cc3)c2n1 [Example 31, 2-(4-cyclopropyl-6-methoxypyrimidin-5-yl)-7-(4-(1-isopropyl-4-(trifluoromethyl)-1H-imidazol-2-yl)benzyl)-N-(thiazol-2-yl)-7H-pyrrolo[2,3-d]pyrimidine-6-carboxamide]	> 5	100 to 500
COc1ncnc(C2CC2)c1-c1ncc2cc(C(=O)N3CCC(F)(F)C3)n(Cc3ccc(-c4nc(C(F)(F)F)cn4C(C)C)cc3)c2n1 [Example 73, (2-(4-cyclopropyl-6-methoxypyrimid in-5-yl)-7-(4-(1-isopropyl-4-(trifluoromethyl)-1H-imidazol-2-yl)benzyl)-7H-pyrrolo[2,3-d]pyrimidin-6-yl)(3,3-difluoropyrrolidin-1-yl)methanone]	> 5	100 to 500
COc1ncnc(C2CC2)c1-c1ncc2cc(C(=O)NCCN(C)C)n(Cc3ccc(-c4nc(C(F)(F)F)cn4C(C)C)cc3)c2n1 [Example 12, 2-(4-cyclopropyl-6-methoxypyrimidin-5-yl)-N-(2-(dimethylamino)ethyl)-7-(4-(1-isopropyl-4-(trifluoromethyl)-1H-imidazol-2-yl)benzyl)-7H-pyrrolo[2,3-d]pyrimidine-6-carboxamide]	> 5	100 to 500
COc1ncnc(C2CC2)c1-c1ncc2cc(C(=O)NC3CCN(C4CC4)CC3)n(Cc3ccc(-c4nc(C(F)(F)F)cn4C(C)C)cc3)c2n1 [Example 121, 2-(4-cyclopropyl-6-methoxypyrimidin-5-yl)-N-(1-cyclopropylpiperidin-4-yl)-7-(4-(1-isopropyl-4-(trifluoromethyl)-1H-imidazol-2-yl)benzyl)-7H-pyrrolo[2,3-d]pyrimidine-6-carboxamide]	> 5	< 100
COc1ncnc(C2CC2)c1-c1ncc2cc(C(=O)NC3CCS(=O)(=O)C3)n(Cc3ccc(-c4nc(C(F)(F)F)cn4C(C)C)cc3)c2n1 (stereo not drawn) [Example 78, 2-(4-cyclopropyl-6-methoxypyrimidin-5-yl)-N-(1,1-dioxidotetrahydrothiophen-3-yl)-7-(4-(1-isopropyl-4-(trifluoromethyl)-1H-imidazol-2-yl)benzyl)-7H-pyrrolo[2,3-d]pyrimidine-6-carboxamide]	> 5	100 to 500
COc1ncnc(C2CC2)c1-c1ncc2cc(C(=O)NC3CN(C)C3)n(Cc3ccc(-c4nc(C(F)(F)F)cn4C(C)C)cc3)c2n1 [Example 110, 2-(4-cyclopropyl-6-methoxypyrimidin-5-yl)-7-(4-(1-isopropyl-4-(trifluoromethyl)-1H-imidazol-2-yl)benzyl)-N-(1-methylazetidin-3-yl)-7H-pyrrolo[2,3-d]pyrimidine-6-carboxamide]	> 5	100 to 500
